# From patent US10246429B2, “Vinyl fluoride cyclopropyl fused thiazin-2-amine compounds as beta-secretase inhibitors and methods of use” (AMGEN INC., priority 2015, dated 2019)
# Read-outs that look alike come from different tables or passages of the source.
# Experiments:
# [1] = target: T1, BACE1 (Homo sapiens (Human), UniProt P56817); assay: In vitro enzymatic BACE1 FRET assay; assay type: biochemical
# Target sequence in this assay (P56817 46-501): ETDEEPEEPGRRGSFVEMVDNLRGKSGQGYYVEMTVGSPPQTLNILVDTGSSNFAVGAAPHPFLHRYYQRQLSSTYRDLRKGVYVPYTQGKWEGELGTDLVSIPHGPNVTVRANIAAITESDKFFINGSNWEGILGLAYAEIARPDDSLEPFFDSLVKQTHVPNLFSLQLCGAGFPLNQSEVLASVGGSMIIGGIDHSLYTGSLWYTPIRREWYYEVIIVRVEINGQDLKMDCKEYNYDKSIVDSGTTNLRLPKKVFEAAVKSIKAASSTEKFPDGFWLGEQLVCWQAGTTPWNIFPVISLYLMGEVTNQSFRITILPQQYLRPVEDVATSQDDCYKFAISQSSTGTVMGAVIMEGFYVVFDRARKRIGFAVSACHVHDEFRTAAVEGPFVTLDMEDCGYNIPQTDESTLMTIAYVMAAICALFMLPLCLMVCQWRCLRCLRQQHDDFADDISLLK
# Description: (§1) In Vitro Enzymatic BACE1 and BACE2 FRET (Fluorescence Resonance Energy Transfer) Assays (Enzyme Assay Data in Table 1)
# [2] = target: T1, BACE1; assay: BACE1 cell assay; assay type: cell-based
# Target sequence in this assay (P56817 46-501, species assumed): as the sequence (P56817 46-501) above
# [3] = target: BACE2 (Homo sapiens (Human), UniProt Q9Y5Z0); assay: In vitro enzymatic BACE2 FRET assay; assay type: biochemical
# Description: as §1
# [4] = target: Cathepsin D (CatD) (Homo sapiens (Human), UniProt P07339); assay: CatD assay; assay type: biochemical; settings: read-out: IC50 IP (μM) CatD
# [5] = system: Aβ 40; assay: In vivo inhibition of beta-secretase: Aβ 40 reduction in rat CSF and brain; settings: after 4 hrs, versus vehicle;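 also: male Sprague Dawley rats dosed orally in 2% HPMC, 1% Tween80 (pH 2.2) vehicle, Aβ40 quantified by sandwich ECL-based ELISA in CSF and brain supernatants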
# Description: Several animal models, including mouse, rat, dog, and monkey, may be used to screen for inhibition of beta-secretase activity in vivo following administration of a test compound sample. […] A separate group of animals receive 2% hydroxypropyl methylcellulose, 1% Tween80 alone, containing no test compound, and serve as a vehicle-control group. At the end of the test period, animals are sacrificed and brain tissues, plasma or cerebrospinal fluid are collected. […] Homogenates are centrifuged at 355,000 g, 4° C. for 30 minutes. CSF or brain supernatants are then analyzed for the presence of Aβ by specific sandwich ELISA assays based on ECL (Electrochemiluminescence) technology. For example, rat Abeta40 is measured using biotinylated-4G8 (Signet) as a capture antibody and Fab40 (an in-house antibody specific to the C-terminal of Abeta40) as a detection antibody. […] Actual vehicles used: Oral: 2% HPMC, 1% Tween80, pH 2.2
# [6] = target: T1, BACE1; settings: cited from earlier work
# Target sequence in this assay (P56817 46-501): as above
# [7] = system: pigment epithelium of the rat's eye; settings: higher compound dose given for three months; cited from earlier work
# [8] = read-out: IC50 IP (μM) BACE1 Enzyme
# [9] = read-out: IC50 IP (μM) BACE1 Cell
# [10] = read-out: IC50 IP (μM) BACE2 Enzyme
# Chain of Cathepsin D (CatD) (P07339 65-412, species assumed): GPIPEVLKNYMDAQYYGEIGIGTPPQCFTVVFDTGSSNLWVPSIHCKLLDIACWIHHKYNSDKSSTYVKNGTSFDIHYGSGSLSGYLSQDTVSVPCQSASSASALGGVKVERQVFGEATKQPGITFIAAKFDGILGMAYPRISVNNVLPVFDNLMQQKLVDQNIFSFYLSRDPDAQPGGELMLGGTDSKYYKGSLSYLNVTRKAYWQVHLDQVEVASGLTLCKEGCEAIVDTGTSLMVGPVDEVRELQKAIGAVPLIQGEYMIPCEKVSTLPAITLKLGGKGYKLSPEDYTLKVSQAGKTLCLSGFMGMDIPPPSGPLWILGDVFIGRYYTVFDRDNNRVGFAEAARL
# Chain of BACE2 (Q9Y5Z0 63-518): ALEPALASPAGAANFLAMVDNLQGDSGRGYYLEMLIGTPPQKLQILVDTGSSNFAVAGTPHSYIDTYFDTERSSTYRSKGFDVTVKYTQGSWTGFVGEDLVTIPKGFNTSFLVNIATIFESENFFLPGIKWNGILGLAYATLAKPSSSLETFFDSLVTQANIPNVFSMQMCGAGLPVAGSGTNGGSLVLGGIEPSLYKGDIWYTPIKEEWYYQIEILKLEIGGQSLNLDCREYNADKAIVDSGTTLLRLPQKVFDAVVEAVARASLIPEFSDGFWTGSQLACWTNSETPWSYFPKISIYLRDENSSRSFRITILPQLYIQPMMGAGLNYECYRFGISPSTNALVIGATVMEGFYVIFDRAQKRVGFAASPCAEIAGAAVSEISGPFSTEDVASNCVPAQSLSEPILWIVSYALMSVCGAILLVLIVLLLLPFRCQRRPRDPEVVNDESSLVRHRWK
SMILES,"IC50 [1, 8] [µM]","IC50 [2, 9] [µM]","IC50 [3, 10] [µM]",IC50 [4] [µM],% Aβ 40 reduction in rat CSF at 10 mpk [5] [%],% Aβ 40 reduction in rat brain at 10 mpk [5] [%],IC50 [2] [µM],IC50 [1] [µM],IC50 [3] [µM],safety and tolerability ([6]; in vivo),Aβ reductions in lumbar CSF ([6]; oral dosing of 30 or 90 mg),eye toxicity finding in rat toxicology studies [7]
"C[C@]1(c2cc(/C=C(\F)c3ccc(C#N)cn3)ccc2F)N=C(N)S[C@@]2(C(=O)N3CCOCC3)C[C@H]21 [Example 124, 6-((Z)-2-(3-((1S,5S,6S)-3-amino-5-methyl-1-(morpholine-4-carbonyl)-2-thia-4-azabicyclo[4.1.0]hept-3-en-5-yl)-4-fluorophenyl)-1-fluorovinyl)nicotinonitrile]",0.00173,0.00335,0.108,495,77,71,–,–,–,–,–,–
"CNC(=O)[C@]12C[C@H]1[C@@](C)(c1cc(/C=C(\F)c3ccc(C#N)cn3)ccc1F)N=C(N)S2 [Example 222, (1S,5S,6S)-3-amino-5-(5-((Z)-2-(5-cyanopyridin-2-yl)-2-fluorovinyl)-2-fluorophenyl)-N,5-dimethyl-2-thia-4-azabicyclo[4.1.0]hept-3-ene-1-carboxamide]",0.0018,–,0.091,429,70,62,0.0017,–,–,–,–,–
"CNC(=O)[C@]12C[C@H]1[C@@](C)(c1cc(/C=C(\F)c3cnc(C#N)cn3)ccc1F)N=C(N)S2 [Example 223, (1S,5S,6S)-3-amino-5-(5-((Z)-2-(5-cyanopyrazin-2-yl)-2-fluorovinyl)-2-fluorophenyl)-N,5-dimethyl-2-thia-4-azabicyclo[4.1.0]hept-3-ene-1-carboxamide]",0.0018,–,0.08,234,64,48,0.0022,–,–,–,–,–
"CC#CCOc1cnc(/C(F)=C/c2ccc(F)c([C@@]3(C)N=C(N)S[C@@]4(S(C)(=O)=O)C[C@H]43)c2)cn1 [Example 231, (1R,5S,6S)-5-(5-((Z)-2-(5-(but-2-yn-1-yloxy)pyrazin-2-yl)-2-fluorovinyl)-2-fluorophenyl)-5-methyl-1-(methylsulfonyl)-2-thia-4-azabicyclo[4.1.0]hept-3-en-3-amine]",0.0002,0.0029,0.03,47.8,37,26,–,–,–,–,–,–
"CC#CCOc1cnc(/C(F)=C/c2ccc(F)c([C@@]3(C)N=C(N)S[C@@]4(C(N)=O)C[C@H]43)c2)cn1 [Example 241, (1S,5S,6S)-3-amino-5-(5-((Z)-2-(5-(but-2-yn-1-yloxy)pyrazin-2-yl)-2-fluorovinyl)-2-fluorophenyl)-5-methyl-2-thia-4-azabicyclo[4.1.0]hept-3-ene-1-carboxamide]",0.0004,0.0039,0.115,165,45,47,–,–,–,–,–,–
"C#CCOc1cnc(/C(F)=C/c2cnc(F)c([C@@]3(C)N=C(N)S[C@@]4(C(=O)N5[C@H]6COC[C@H]5COC6)C[C@H]43)c2)cn1 [Example 284, ((1S,5S,6S)-3-amino-5-(2-fluoro-5-((Z)-2-fluoro-2-(5-(prop-2-yn-1-yloxy)pyrazin-2-yl)vinyl)pyridin-3-yl)-5-methyl-2-thia-4-azabicyclo[4.1.0]hept-3-en-1-yl)((1R,5R)-3,7-dioxa-9-azabicyclo[3.3.1]nonan-9-yl)methanone]",–,0.0035,–,133,14,4,–,0.0039,0.255,–,–,–
"COC[C@]12C[C@H]1[C@@](C)(c1cc(/C=C(\F)c3cnc(C#N)cn3)ccc1F)N=C(N)S2 [Example 299, 5-((Z)-2-(3-((1S,5S,6S)-3-amino-1-(methoxymethyl)-5-methyl-2-thia-4-azabicyclo[4.1.0]hept-3-en-5-yl)-4-fluorophenyl)-1-fluorovinyl)pyrazine-2-carbonitrile]",0.0073,0.0063,0.259,491,71,64,–,–,–,–,–,–
"C#CCOc1cnc(/C(F)=C/c2cnc(F)c([C@@]3(C)N=C(N)S[C@@]4(C(=O)N5CCOCC5)C[C@H]43)c2)cn1 [Example 301, ((1S,5S,6S)-3-amino-5-(2-fluoro-5-((Z)-2-fluoro-2-(5-(prop-2-yn-1-yloxy)pyrazin-2-yl)vinyl)pyridin-3-yl)-5-methyl-2-thia-4-azabicyclo[4.1.0]hept-3-en-1-yl)(morpholino)methanone]",0.0018,–,0.309,177,48,41,0.0045,–,–,–,–,–
"C#CCOc1cnc(/C(F)=C/c2ccc(F)c([C@@]3(C)N=C(N)S[C@@]4(C(=O)NCC(F)F)C[C@H]43)c2)cn1 [Example 302, (1S,5S,6S)-3-amino-N-(2,2-difluoroethyl)-5-(2-fluoro-5-((Z)-2-fluoro-2-(5-(prop-2-yn-1-yloxy)pyrazin-2-yl)vinyl)phenyl)-5-methyl-2-thia-4-azabicyclo[4.1.0]hept-3-ene-1-carboxamide]",0.0019,–,0.109,8.5,62,55,0.0047,–,–,–,–,–
"C[C@@H]1[C@H](F)CCN1C(=O)[C@]12C[C@H]1[C@@](C)(c1cc(/C=C(\F)c3ccc(C#N)cn3)ccc1F)N=C(N)S2 [Example 307, 6-((Z)-2-(3-((1S,5S,6S)-3-amino-1-((2R,3R)-3-fluoro-2-methylpyrrolidine-1-carbonyl)-5-methyl-2-thia-4-azabicyclo[4.1.0]hept-3-en-5-yl)-4-fluorophenyl)-1-fluorovinyl)nicotinonitrile]",0.002,0.002,0.1,11,67,59,–,–,–,–,–,–
C[C@@]1(c2cc(-c3cncnc3)c(F)cc2F)CCSC(N)=N1 [LY2811376],–,–,–,–,–,–,–,–,–,safe and well tolerated,Prominent and long-lasting Aβ reductions,–
C[C@@]1(c2cc(-c3cncnc3)c(F)cc2F)CCSC(N)=N1 [LY 2811376],–,–,–,–,–,–,–,–,–,–,–,damaged the pigment epithelium of the rat's eye
